Common to all, as to assay type: biochemical
Common to all, as to details: continuous assay sixty minutes, reaction initiated by adding enzyme to substrate-inhibitor mixture; Ki by simulating AMC formation (Equation 1)

One experiment concerns the target T1, mICE (Mus musculus, UniProt P29452).
T1 sequence (P29452 123-296 limits assumed): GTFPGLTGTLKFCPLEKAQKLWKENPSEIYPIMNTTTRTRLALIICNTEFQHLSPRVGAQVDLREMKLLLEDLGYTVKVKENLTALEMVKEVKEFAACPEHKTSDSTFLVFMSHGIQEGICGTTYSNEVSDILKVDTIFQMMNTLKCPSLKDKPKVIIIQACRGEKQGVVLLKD
T1 sequence (P29452 315-402 limits assumed): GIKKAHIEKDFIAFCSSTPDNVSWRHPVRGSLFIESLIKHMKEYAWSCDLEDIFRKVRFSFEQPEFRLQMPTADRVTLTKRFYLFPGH
Briefly: Ki determination, ICE/ced-3 family protease fluorescence assay (mICE). On the procedure: (§1) Fluorescence enzyme assays detecting the activity of the compounds of Formula I utilizing the recombinant ICE and CPP32 enzymes are performed essentially according to Thorrberry et al. (Nature, 356:768:774 (1992)) and Nicholson et al. (Nature, 376:37-43 (1995)) respectively, (herein incorporated by reference) in 96 well microtiter plates. The substrate is Acetyl-Tyr-Val-Ala-Asp-amino-4-methylcoumarin (AMC) (SEQ ID NO: 1) for the ICE assay and Acetyl-Asp-Glu-Val-Asp-amino-4-methylcoumarin (SEQ ID NO: 2) for the CPP32, Mch2, Mch3 and Mch5 assays. Enzyme reactions are run in ICE buffer (25 mM HEPES, 1 mM EDTA, 0.1% CHAPS, 10% sucrose, pH 7.5) containing 2 mM DTT at room temperature in duplicate. The assays are performed by mixing the following components:
(§2) 50 μL ICE, Mch2, Mch5, CPP32 (18.8, 38, 8.1 and 0.153 nM concentrations, respectively) or Mch3 (1 unit) enzyme in ICE buffer containing either 8.0 (ICE, Mch2, Mch3, CPP32) or 20 (Mch5) mM DTT;
(§3) 50 μL compound of Formula I or ICE buffer (control); and […]
(§4) […] Fluorescent AMC product formation is monitored for one hour at room temperature by measuring the fluorescence emission at 460 nm using an excitation wavelength of 360 nm. […]
(§5) The product formation at time t may be expressed as: [formula] […]
(§6) The activity of a representative compound of this invention (i.e., Compound No. 1) evaluated according to the procedures disclosed in Example 1. […]

Another experiment has as its target T2, MCH-2 (Homo sapiens, UniProt P55212).
T2 sequence (P55212 24-179 limits assumed): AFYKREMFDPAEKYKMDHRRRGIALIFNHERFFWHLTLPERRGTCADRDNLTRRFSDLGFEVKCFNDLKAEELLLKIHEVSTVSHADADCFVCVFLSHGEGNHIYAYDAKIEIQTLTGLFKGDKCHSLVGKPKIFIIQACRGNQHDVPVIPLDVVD
T2 sequence (P55212 194-293 limits assumed): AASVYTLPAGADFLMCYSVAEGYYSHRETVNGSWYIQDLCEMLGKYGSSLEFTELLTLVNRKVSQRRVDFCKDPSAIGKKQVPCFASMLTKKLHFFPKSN
Briefly: Ki determination, ICE/ced-3 family protease fluorescence assay (MCH-2). On the procedure:
as §1, §2, §3, §4, §5, §6

Another experiment concerns the target T3, CPP32 (Homo sapiens, UniProt P42574).
T3 sequence (P42574 29-175 limits assumed): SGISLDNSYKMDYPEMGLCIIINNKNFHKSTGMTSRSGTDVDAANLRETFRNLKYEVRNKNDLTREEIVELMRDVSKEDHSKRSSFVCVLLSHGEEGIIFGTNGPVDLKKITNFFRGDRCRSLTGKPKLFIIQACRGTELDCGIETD
T3 sequence (P42574 176-277 limits assumed): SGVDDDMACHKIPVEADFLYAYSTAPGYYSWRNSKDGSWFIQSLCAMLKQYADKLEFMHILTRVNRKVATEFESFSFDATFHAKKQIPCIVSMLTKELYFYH
Put plainly: Ki determination, ICE/ced-3 family protease fluorescence assay (CPP32). On the procedure:
as §1, §2, §3, §4, §5, §6

In the next experiment the target is MCH-5 (Homo sapiens, UniProt Q14790). Put plainly: Ki determination, ICE/ced-3 family protease fluorescence assay (MCH-5). The protocol: as §1, §2, §3, §4, §5, §6

pKi: −log10 of the molar value. Peptide text beside a SMILES is read from it. * marks the point of attachment. Cbz = O=C(OCc1ccccc1)*; CH2F = FC*

Consider `CC(NC(=O)C(NC(=O)OCc1ccccc1)C(C)C)C(=O)NC(CC(=O)O)C(=O)CF` (stereo not drawn) [reference, Cbz-ValAlaAsp-CH2F] (Cbz-Val-Ala-Asp-CH2F; configuration not given here), for which the negative logarithm of the Ki (pKi) is 7.82 on mICE, 6.09 at CPP32 and 7.74 on MCH-5. Moreover, the Ki on MCH-2 was 0.594 µM.
Take `C[C@H](NC(=O)C(=O)Nc1ccccc1C(C)(C)C)C(=O)N[C@@H](CC(=O)NS(C)(=O)=O)C(=O)COc1c(F)c(F)cc(F)c1F` [compound 1]: the negative logarithm of the Ki (pKi) was 8.40 at mICE, 6.07 at CPP32 and 7.96 at MCH-5. The Ki at MCH-2 is 0.681 µM.

Broadly, the pKi is the negative decadic logarithm of the Ki, by convention in mol/L. The Ki is a measure of affinity in units of concentration, obtained from inhibition or displacement.

Values taken from US6515173B1, “Inhibitors of the ICE/ced-3 family of cysteine proteases” (Idun Pharmaceuticals, Inc., priority 2000, dated 2003).
